Measurements from US20230094952A1, “Method for Culturing Hematopoietic Stem Cells” (Sumitomo Pharma Co., Ltd., priority 2019, published 2023).

Assays:
[1] = test system: mouse long-term hematopoietic stem cells; assay: Combination test with UM171 on mouse long-term hematopoietic stem cells; format: cell-based; details: for KLS-positive rate / Viable cell count / mCherry-positive rate: n=2
Experimental: The cells after classification were seeded in a 96-well plate. A cell culture medium was prepared by adding Stem Cell Factor (SCF, manufactured by PeproTech, Inc.) and Thrombopoietin (TPO, manufactured by PeproTech, Inc.) to StemSpan SFEM culture medium (manufactured by […] Technologies Inc.) and added in advance to a cell culture 96-well plate (manufactured by BD Biosciences) at 100 μL/well, and the cells sorted with the FACS Aria II cell sorter (BD Biosciences) were then seeded at 10 cells/well.
The test compounds each in the form of 10 mM DMSO solution were diluted with the cell culture medium to a final concentration of 1 μM, and added to the cells seeded after classification through medium exchange to a final volume of 200 μL/well. Thereafter, the cells were cultured in a CO2 incubator under conditions of 37° C. and 5% CO2 for 1 week.
After culture, the cells were stained with the antibodies for the surface markers c-Kit and Sca-1, Ter-119, B220, CD3, CD4, CD8a, Gr-1, and CD11b, and the ratio and post-growth cell count of a KLS fraction (c-Kit^+, Lin^−, Sca-1^+) or an mCherry-positive fraction given with use of a FACS Aria II cell sorter were analyzed by using FlowJo (BD Biosciences). The mCherry-positive fraction is a cell fraction expressing the Hoxb5 gene, and the KLS fraction is a cell fraction being c-Kit-positive, Lin-negative, and Sca-1-positive, and includes hematopoietic stem cells and multipotent progenitor cells as main components.
A DMSO solution of artemether was adjusted with the cell culture medium to three final concentrations (0.1 μM, 1 μM, 10 μM), and a DMSO solution of UM171 was adjusted with the cell culture medium to four final concentrations (0.1 μM, 0.3 μM, 1 μM, 3 μM), and cell culture was performed at n=2 by the same method as in Example 1. The cell culture and evaluation criteria were the same as those in Example 2.

[2] = test system: mouse long-term hematopoietic stem cells; assay: Reproducibility and concentration dependence test: 1-week culture of sorted Hoxb5-tri-mCherry mouse long-term hematopoietic stem cells, flow cytometry; format: cell-based; details: day 7 of culture, n=2
Method in brief: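 Hoxb5-tri-mCherry+ LT-HSCs (Lin−c-Kit+Sca-1+Flk2−CD34−/lo CD150+) were sorted from mouse bone marrow at 10 cells/well into StemSpan SFEM with SCF and TPO. Cells were cultured with compound for 1 week at 37°C, 5% CO2. Flow cytometry then measured KLS and mCherry+ fractions and cell counts.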

[3] = UM171 0.1 μM alone (DMSO, no artemether)
[4] = UM171 0.3 μM alone (DMSO, no artemether)
[5] = UM171 1 μM alone (DMSO, no artemether)
[6] = UM171 3 μM alone (DMSO, no artemether)

Structure (SMILES): Cn1nnc(-c2ccc3c(c2)[nH]c2nc(Cc4ccccc4)nc(N[C@H]4CC[C@H](N)CC4)c23)n1 [UM171, (1r,4r)-N1-(2-benzyl-7-(2-methyl-2H-tetrazol-5-yl)-9H-pyrimido[4,5-b]indol-4-yl)cyclohexane-1,4-diamine]
- KLS-positive rate [1, 3]: 41.0%
- Viable cell count [1, 3]: 508.0 cell
- mCherry-positive rate [1, 3]: 4.7%
- KLS-positive rate [1, 4]: 71.6%
- Viable cell count [1, 4]: 281.0 cell
- mCherry-positive rate [1, 4]: 17.1%
- KLS-positive rate [1, 5]: 98.0%
- Viable cell count [1, 5]: 24.5 cell
- mCherry-positive rate [1, 5]: 38.9%
- KLS-positive rate [1, 6]: 82.2%
- Viable cell count [1, 6]: 82.5 cell
- mCherry-positive rate [1, 6]: 16.2%
- Effect of culture with artemether and UM171 together on mCherry-positive and KLS-positive cell ratios ([1]; compared with any one of the substances alone): combinational effect

Structure (SMILES): CS[C@H]1O[C@@H]2O[C@@]3(C)CC[C@H]4[C@H](C)CC[C@@H]([C@H]1C)[C@@]24OO3 [Example 1-4, (3R,5aS,6R,8aS,9R,10R,12S,12aR)-3,6,9-trimethyl-10-(methylsulfanyl)decahydro-12H-3,12-epoxypyrano[4,3-j][1,2]benzodioxepine]
- KLS-positive rate ([2]; Table 4, compound 0.1 μM): 17.2%
- Viable cell count ([2]; Table 4, compound 0.1 μM): 353.0 cell
- mCherry-positive rate ([2]; Table 4, compound 0.1 μM): 8.0%
- KLS-positive rate ([2]; Table 4, compound 0.3 μM): 37.9%
- Viable cell count ([2]; Table 4, compound 0.3 μM): 103.0 cell
- mCherry-positive rate ([2]; Table 4, compound 0.3 μM): 44.7%
- KLS-positive rate ([2]; Table 4, compound 1 μM): 31.1%
- Viable cell count ([2]; Table 4, compound 1 μM): 181.5 cell
- mCherry-positive rate ([2]; Table 4, compound 1 μM): 85.2%
- KLS-positive rate ([2]; Table 4, compound 3 μM): 30.7%
- Viable cell count ([2]; Table 4, compound 3 μM): 87.5 cell
- mCherry-positive rate ([2]; Table 4, compound 3 μM): 100.0%
- KLS-positive rate ([2]; Table 4, compound 10 μM): 61.4%
- Viable cell count ([2]; Table 4, compound 10 μM): 7.5 cell
- mCherry-positive rate ([2]; Table 4, compound 10 μM): 90.9%

Structure (SMILES): CS[C@@H]1O[C@@H]2O[C@@]3(C)CC[C@H]4[C@H](C)CC[C@@H]([C@H]1C)[C@@]24OO3 [Example 1-3, (3R,5aS,6R,8aS,9R,10S,12S,12aR)-3,6,9-Trimethyl-10-(methylsulfanyl)decahydro-12H-3,12-epoxypyrano[4,3-j][1,2]benzodioxepine]
- KLS-positive rate ([2]; Table 4, compound 0.1 μM): 15.8%
- Viable cell count ([2]; Table 4, compound 0.1 μM): 445.0 cell
- mCherry-positive rate ([2]; Table 4, compound 0.1 μM): 8.0%
- KLS-positive rate ([2]; Table 4, compound 0.3 μM): 18.6%
- Viable cell count ([2]; Table 4, compound 0.3 μM): 324.0 cell
- mCherry-positive rate ([2]; Table 4, compound 0.3 μM): 4.7%
- KLS-positive rate ([2]; Table 4, compound 1 μM): 20.3%
- Viable cell count ([2]; Table 4, compound 1 μM): 299.5 cell
- mCherry-positive rate ([2]; Table 4, compound 1 μM): 38.6%
- KLS-positive rate ([2]; Table 4, compound 3 μM): 24.2%
- Viable cell count ([2]; Table 4, compound 3 μM): 139.0 cell
- mCherry-positive rate ([2]; Table 4, compound 3 μM): 97.0%
- KLS-positive rate ([2]; Table 4, compound 10 μM): 83.4%
- Viable cell count ([2]; Table 4, compound 10 μM): 3.5 cell
- mCherry-positive rate ([2]; Table 4, compound 10 μM): 100.0%

Structure (SMILES): CC1=CO[C@@H]2O[C@@]3(C)CC[C@H]4[C@H](C)CC[C@@H]1[C@@]24OO3 [Example 1-28, (3R,5aS,6R,8aS,12R,12aR)-3,6,9-trimethyl-3,4,5,5a,6,7,8,8a-octahydro-12H-3,12-epoxypyrano[4,3-j][1,2]benzodioxepine]
- KLS-positive rate ([2]; Table 4, compound 0.1 μM): 21.5%
- Viable cell count ([2]; Table 4, compound 0.1 μM): 275.5 cell
- mCherry-positive rate ([2]; Table 4, compound 0.1 μM): 12.9%
- KLS-positive rate ([2]; Table 4, compound 0.3 μM): 13.5%
- Viable cell count ([2]; Table 4, compound 0.3 μM): 305.0 cell
- mCherry-positive rate ([2]; Table 4, compound 0.3 μM): 15.0%
- KLS-positive rate ([2]; Table 4, compound 1 μM): 10.5%
- Viable cell count ([2]; Table 4, compound 1 μM): 522.0 cell
- mCherry-positive rate ([2]; Table 4, compound 1 μM): 35.5%
- KLS-positive rate ([2]; Table 4, compound 3 μM): 16.5%
- Viable cell count ([2]; Table 4, compound 3 μM): 283.0 cell
- mCherry-positive rate ([2]; Table 4, compound 3 μM): 80.3%
- KLS-positive rate ([2]; Table 4, compound 10 μM): 41.2%
- Viable cell count ([2]; Table 4, compound 10 μM): 138.0 cell
- mCherry-positive rate ([2]; Table 4, compound 10 μM): 96.4%

Structure (SMILES): C[C@H]1[C@H](N2CCOCC2)O[C@@H]2O[C@@]3(C)CC[C@H]4[C@H](C)CC[C@@H]1[C@@]24OO3 [Example 1-13, 4-[(3R,5aS,6R,8aS,9R,10R,12R,12aR)-3,6,9-Trimethyldecahydro-12H-3,12-epoxypyrano[4,3-j][1,2]benzodioxepin-10-yl]morpholine]
- KLS-positive rate ([2]; Table 4, compound 0.1 μM): 22.1%
- Viable cell count ([2]; Table 4, compound 0.1 μM): 201.0 cell
- mCherry-positive rate ([2]; Table 4, compound 0.1 μM): 24.3%
- KLS-positive rate ([2]; Table 4, compound 0.3 μM): 14.7%
- Viable cell count ([2]; Table 4, compound 0.3 μM): 605.0 cell
- mCherry-positive rate ([2]; Table 4, compound 0.3 μM): 2.9%
- KLS-positive rate ([2]; Table 4, compound 1 μM): 21.0%
- Viable cell count ([2]; Table 4, compound 1 μM): 136.5 cell
- mCherry-positive rate ([2]; Table 4, compound 1 μM): 6.7%
- KLS-positive rate ([2]; Table 4, compound 3 μM): 0.0%
- Viable cell count ([2]; Table 4, compound 3 μM): 0.0 cell
- mCherry-positive rate ([2]; Table 4, compound 3 μM): 0.0%
- KLS-positive rate ([2]; Table 4, compound 10 μM): 0.0%
- Viable cell count ([2]; Table 4, compound 10 μM): 0.0 cell
- mCherry-positive rate ([2]; Table 4, compound 10 μM): 0.0%

Structure (SMILES): C[C@H]1[C@H](OC(=O)CCC(=O)O)O[C@@H]2O[C@@]3(C)CC[C@H]4[C@H](C)CC[C@@H]1[C@@]24OO3 [Example 1-32, artesunate, reference compound]
- KLS-positive rate ([2]; Table 3, compound 0.1 μM): 36.3%
- Viable cell count ([2]; Table 3, compound 0.1 μM): 1065.5 cell
- mCherry-positive rate ([2]; Table 3, compound 0.1 μM): 23.59%
- KLS-positive rate ([2]; Table 3, compound 0.3 μM): 46.4%
- Viable cell count ([2]; Table 3, compound 0.3 μM): 540 cell
- mCherry-positive rate ([2]; Table 3, compound 0.3 μM): 35.1%
- KLS-positive rate ([2]; Table 3, compound 1 μM): 45.3%
- Viable cell count ([2]; Table 3, compound 1 μM): 266 cell
- mCherry-positive rate ([2]; Table 3, compound 1 μM): 91.2%
- KLS-positive rate ([2]; Table 3, compound 3 μM): 0%
- Viable cell count ([2]; Table 3, compound 3 μM): 0.5 cell
- mCherry-positive rate ([2]; Table 3, compound 3 μM): 50%
- KLS-positive rate ([2]; Table 3, compound 10 μM): 0%
- Viable cell count ([2]; Table 3, compound 10 μM): 0.5 cell
- mCherry-positive rate ([2]; Table 3, compound 10 μM): 0%
- KLS-positive rate ([2]; Table 4, compound 0.1 μM): 21.0%
- Viable cell count ([2]; Table 4, compound 0.1 μM): 597.5 cell
- mCherry-positive rate ([2]; Table 4, compound 0.1 μM): 9.4%
- KLS-positive rate ([2]; Table 4, compound 0.3 μM): 12.4%
- Viable cell count ([2]; Table 4, compound 0.3 μM): 355.5 cell
- mCherry-positive rate ([2]; Table 4, compound 0.3 μM): 6.0%
- KLS-positive rate ([2]; Table 4, compound 1 μM): 90.6%
- Viable cell count ([2]; Table 4, compound 1 μM): 9.0 cell
- mCherry-positive rate ([2]; Table 4, compound 1 μM): 100.0%
- KLS-positive rate ([2]; Table 4, compound 3 μM): 21.2%
- mCherry-positive rate ([2]; Table 4, compound 3 μM): 53.3%
- KLS-positive rate ([2]; Table 4, compound 10 μM): 0.0%
- Viable cell count ([2]; Table 4, compound 10 μM): 1.0 cell
- mCherry-positive rate ([2]; Table 4, compound 10 μM): 25.0%

Structure (SMILES): C[C@H]1[C@H](n2cc(-c3ccccc3)nn2)O[C@@H]2O[C@@]3(C)CC[C@H]4[C@H](C)CC[C@@H]1[C@@]24OO3 [Example 1-9, 4-Phenyl-1-[(3R,5aS,6R,8aS,9R,10R,12R,12aR)-3,6,9-trimethyldecahydro-12H-3,12-epoxypyrano[4,3-j][1,2]benzodioxepin-10-yl]-1H-1,2,3-triazole]
- KLS-positive rate ([2]; Table 4, compound 0.1 μM): 10.6%
- Viable cell count ([2]; Table 4, compound 0.1 μM): 627.5 cell
- mCherry-positive rate ([2]; Table 4, compound 0.1 μM): 5.9%
- KLS-positive rate ([2]; Table 4, compound 0.3 μM): 31.1%
- Viable cell count ([2]; Table 4, compound 0.3 μM): 500.0 cell
- mCherry-positive rate ([2]; Table 4, compound 0.3 μM): 4.5%
- KLS-positive rate ([2]; Table 4, compound 1 μM): 34.3%
- Viable cell count ([2]; Table 4, compound 1 μM): 625.0 cell
- mCherry-positive rate ([2]; Table 4, compound 1 μM): 9.4%
- KLS-positive rate ([2]; Table 4, compound 3 μM): 14.1%
- Viable cell count ([2]; Table 4, compound 3 μM): 479.0 cell
- mCherry-positive rate ([2]; Table 4, compound 3 μM): 8.1%
- KLS-positive rate ([2]; Table 4, compound 10 μM): 27.1%
- Viable cell count ([2]; Table 4, compound 10 μM): 491.5 cell
- mCherry-positive rate ([2]; Table 4, compound 10 μM): 11.4%
